{"source": "paper PMC5998061", "about": "(2018)", "key": {"[1]": {"system": "MG RNA aptamer (malachite green RNA aptamer) (RNA, aptamer) GGAUCCCGACUGGCGAGAGCCAGGUAACGAAUGGAUCC", "assay": "fluorescence titration, Hill fit n = 1", "settings": "100 mM KCl, 1 mM Mg-citrate; 10 mM HEPES, 0.2 M bicine, pH 8.5, room temperature; no vesicles"}, "[2]": {"system": "MG aptamer construct for SHAPE (MG aptamer SHAPE construct) (RNA, aptamer) GGGCCUUCGGGCCAAGGAUCCCGACUGGCGAGAGCCAGGUAACGAAUGGAUCCUCGAUCCGGUUCGCCGGAUCCAAAUCGGGCUUCGGUCCGGUUC", "assay": "SHAPE (NMIA), A30/A31 band ratio, Boltzmann fit", "settings": "100 mM KCl, 1 mM Mg-citrate; bicine pH 8.5; RNA outside empty myristoleic acid vesicles; MG incubation room temperature, NMIA 10 °C; apparent"}}, "data": [{"smiles": "CN(C)c1ccc(C(=C2C=CC(=[N+](C)C)C=C2)c2ccccc2)cc1", "values": [{"measurement": "KD", "setting": "[1]", "result": "2500 ± 400", "unit": "nM"}, {"measurement": "midpoint", "setting": "[2]", "result": "6.1 ± 0.7", "unit": "µM"}]}]}
